{"source": "ChEMBL document CHEMBL1133193", "about": "“4-[3-(5,6,7,8-Tetrahydro-5,5,8,8-tetramethyl-2-naphthalenyl)phenyl]benzoic acid and heterocyclic-bridged analogues are novel retinoic acid receptor subtype and retinoid X receptor alpha agonists” (Bioorg Med Chem Lett, 2000)", "key": {"[1]": {"target": "T1, Retinoic acid receptor RXR-alpha (Homo sapiens, UniProt P19793)", "T1 sequence (P19793 whole entry)": "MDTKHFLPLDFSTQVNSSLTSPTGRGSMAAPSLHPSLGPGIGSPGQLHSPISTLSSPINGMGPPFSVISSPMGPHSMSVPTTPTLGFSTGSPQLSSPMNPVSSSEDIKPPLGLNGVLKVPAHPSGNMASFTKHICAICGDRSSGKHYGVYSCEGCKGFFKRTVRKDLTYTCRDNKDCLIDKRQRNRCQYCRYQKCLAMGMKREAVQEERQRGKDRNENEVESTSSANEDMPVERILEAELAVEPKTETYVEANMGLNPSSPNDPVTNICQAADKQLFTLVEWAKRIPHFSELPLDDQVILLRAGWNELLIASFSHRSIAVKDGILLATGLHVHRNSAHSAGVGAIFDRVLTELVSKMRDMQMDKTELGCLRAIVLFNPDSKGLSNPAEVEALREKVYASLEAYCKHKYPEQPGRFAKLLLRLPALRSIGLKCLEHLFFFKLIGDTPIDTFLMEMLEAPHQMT", "assay": "Transcriptional activation in CV-1 cells expressing Retinoic acid receptor RXR-alpha", "type": "cell-based, Cercopithecidae"}, "[2]": {"target": "T2, Retinoic acid receptor gamma (Homo sapiens, UniProt P13631)", "T2 sequence (P13631 whole entry)": "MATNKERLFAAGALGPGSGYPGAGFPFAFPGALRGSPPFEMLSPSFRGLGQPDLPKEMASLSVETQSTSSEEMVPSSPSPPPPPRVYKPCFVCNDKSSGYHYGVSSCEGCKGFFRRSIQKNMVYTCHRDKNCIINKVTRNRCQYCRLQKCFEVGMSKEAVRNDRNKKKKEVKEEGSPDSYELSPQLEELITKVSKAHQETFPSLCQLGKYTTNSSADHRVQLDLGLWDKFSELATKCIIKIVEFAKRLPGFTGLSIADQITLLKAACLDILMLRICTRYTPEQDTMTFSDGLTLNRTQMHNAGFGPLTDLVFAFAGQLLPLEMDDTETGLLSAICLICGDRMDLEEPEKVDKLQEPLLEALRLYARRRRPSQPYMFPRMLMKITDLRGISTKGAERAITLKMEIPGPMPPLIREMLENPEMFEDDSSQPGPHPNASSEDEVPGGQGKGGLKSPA", "assay": "Transcriptional activation in CV-1 cells expressing retinoic acid gamma receptor", "type": "cell-based, Cercopithecidae"}, "[3]": {"target": "T3, Retinoic acid receptor RXR-alpha (Homo sapiens) (UniProt P19793)", "T3 sequence (whole entry)": "T1 sequence (P19793 whole entry)", "assay": "Percent activation of Retinoic acid receptor RXR-alpha at 1 uM relative to 1 uM 9-cis-retinoic acid"}, "[4]": {"target": "T4, Retinoic acid receptor beta (Homo sapiens, UniProt P10826)", "T4 sequence (P10826 whole entry)": "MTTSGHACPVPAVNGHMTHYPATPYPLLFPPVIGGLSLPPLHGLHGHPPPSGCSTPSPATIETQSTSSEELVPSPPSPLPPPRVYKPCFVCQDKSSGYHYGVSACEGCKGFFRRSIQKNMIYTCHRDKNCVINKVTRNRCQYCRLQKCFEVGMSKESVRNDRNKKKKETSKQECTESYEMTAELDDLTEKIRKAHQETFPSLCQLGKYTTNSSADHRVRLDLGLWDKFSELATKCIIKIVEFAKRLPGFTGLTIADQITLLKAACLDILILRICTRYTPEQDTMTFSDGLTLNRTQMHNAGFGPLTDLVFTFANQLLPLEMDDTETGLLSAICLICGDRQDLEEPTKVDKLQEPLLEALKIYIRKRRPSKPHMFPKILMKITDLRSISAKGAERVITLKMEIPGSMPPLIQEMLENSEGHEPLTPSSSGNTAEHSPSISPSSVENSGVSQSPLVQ", "assay": "Transcriptional activation in CV-1 cells expressing Retinoic acid receptor beta", "type": "cell-based, Cercopithecidae"}, "[5]": {"target": "T5, Retinoic acid receptor alpha (Homo sapiens, UniProt P10276)", "T5 sequence (P10276 whole entry)": "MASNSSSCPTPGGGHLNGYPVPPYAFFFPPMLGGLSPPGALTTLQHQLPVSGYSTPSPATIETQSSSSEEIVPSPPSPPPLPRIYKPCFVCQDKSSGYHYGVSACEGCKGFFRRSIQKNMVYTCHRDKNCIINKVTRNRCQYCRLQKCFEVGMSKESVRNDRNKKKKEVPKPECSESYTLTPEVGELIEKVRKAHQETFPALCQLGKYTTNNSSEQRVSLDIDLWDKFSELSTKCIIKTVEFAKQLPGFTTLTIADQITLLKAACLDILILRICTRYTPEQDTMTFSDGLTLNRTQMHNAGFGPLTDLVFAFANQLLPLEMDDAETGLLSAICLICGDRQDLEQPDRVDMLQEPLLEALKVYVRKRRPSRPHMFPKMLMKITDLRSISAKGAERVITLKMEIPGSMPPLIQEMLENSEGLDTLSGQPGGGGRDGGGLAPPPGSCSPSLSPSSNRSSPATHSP", "assay": "Transcriptional activation in CV-1 cells expressing Retinoic acid receptor alpha", "type": "cell-based, Cercopithecidae"}, "[6]": {"system": "T47D", "assay": "Inhibition of T47D retinoid sensitive breast carcinoma cell proliferation at 1 uM", "type": "functional", "conditions": "Homo sapiens"}, "[7]": {"system": "MDA-MB-231", "assay": "Growth of MDA-MB-231 retinoid resistant breast carcinoma cells at 1 uM", "conditions": "Homo sapiens"}, "[8]": {"system": "ZR-75-1", "assay": "Inhibition of ZR-75-1 retinoid sensitive breast carcinoma cell proliferation at 1 uM", "type": "functional", "conditions": "Homo sapiens"}}, "data": [{"smiles": "CC1(C)CCC(C)(C)c2cc(-c3ccc4cc(C(=O)O)ccc4c3)ccc21", "values": [{"measurement": "AC50", "setting": "[1]", "result": "> 1000", "unit": "nM"}, {"measurement": "AC50", "setting": "[2]", "result": 68, "unit": "nM"}, {"measurement": "Activation", "setting": "[3]", "result": 0, "unit": "%"}, {"measurement": "AC50", "setting": "[4]", "result": 52, "unit": "nM"}, {"measurement": "AC50", "setting": "[5]", "result": "> 1000", "unit": "nM"}]}, {"smiles": "Cc1ccc(-c2ccc(C(=O)O)cc2)cc1-c1cc2c(cc1C)C(C)(C)CCC2(C)C", "values": [{"measurement": "AC50", "setting": "[1]", "result": 430, "unit": "nM"}, {"measurement": "AC50", "setting": "[2]", "result": 1, "unit": "nM"}, {"measurement": "Activation", "setting": "[3]", "result": 70, "unit": "%"}, {"measurement": "AC50", "setting": "[4]", "result": 10, "unit": "nM"}, {"measurement": "AC50", "setting": "[5]", "result": "> 1000", "unit": "nM"}]}, {"smiles": "Cc1ccc(-c2ccc(C(=O)O)cc2)cc1-c1ccc2c(c1)C(C)(C)CCC2(C)C", "values": [{"measurement": "AC50", "setting": "[1]", "result": 135, "unit": "nM"}, {"measurement": "inhibition at 1 µM", "setting": "[6]", "result": 35, "unit": "%"}, {"measurement": "AC50", "setting": "[2]", "result": "< 1", "unit": "nM"}, {"measurement": "growth relative to control at 1 µM", "setting": "[7]", "result": 75, "unit": "%"}, {"measurement": "inhibition at 1 µM", "setting": "[8]", "result": 49, "unit": "%"}, {"measurement": "Activation", "setting": "[3]", "result": 85, "unit": "%"}, {"measurement": "AC50", "setting": "[4]", "result": "< 1", "unit": "nM"}, {"measurement": "AC50", "setting": "[5]", "result": 79, "unit": "nM"}]}, {"smiles": "C/C(=C\\c1ccc(C(=O)O)cc1)c1ccc2c(c1)C(C)(C)CCC2(C)C", "values": [{"measurement": "AC50", "setting": "[1]", "result": "> 1000", "unit": "nM"}, {"measurement": "Activation", "setting": "[3]", "result": 0, "unit": "%"}]}, {"smiles": "CC1(C)CCC(C)(C)c2cc(-c3cccc(-c4ccc(C(=O)O)cc4)c3)ccc21", "values": [{"measurement": "AC50", "setting": "[1]", "result": "> 1000", "unit": "nM"}, {"measurement": "inhibition at 1 µM", "setting": "[6]", "result": 32, "unit": "%"}, {"measurement": "AC50", "setting": "[2]", "result": 2.3, "unit": "nM"}, {"measurement": "growth relative to control at 1 µM", "setting": "[7]", "result": 80, "unit": "%"}, {"measurement": "inhibition at 1 µM", "setting": "[8]", "result": 47, "unit": "%"}, {"measurement": "Activation", "setting": "[3]", "result": 27, "unit": "%"}, {"measurement": "AC50", "setting": "[4]", "result": 4.3, "unit": "nM"}, {"measurement": "AC50", "setting": "[5]", "result": 1, "unit": "nM"}]}, {"smiles": "Cc1cc2c(cc1-c1cccc(-c3ccc(C(=O)O)cc3)n1)C(C)(C)CCC2(C)C", "values": [{"measurement": "AC50", "setting": "[1]", "result": "> 1000", "unit": "nM"}, {"measurement": "AC50", "setting": "[2]", "result": 1000, "unit": "nM"}, {"measurement": "Activation", "setting": "[3]", "result": 0, "unit": "%"}, {"measurement": "AC50", "setting": "[4]", "result": "> 1000", "unit": "nM"}, {"measurement": "AC50", "setting": "[5]", "result": "> 1000", "unit": "nM"}]}, {"smiles": "CC1=C(/C=C/C(C)=C\\C=C\\C(C)=C\\C(=O)O)C(C)(C)CCC1", "note": "[ALITRETINOIN]", "values": [{"measurement": "inhibition at 1 µM", "setting": "[6]", "result": 35, "unit": "%"}, {"measurement": "growth relative to control at 1 µM", "setting": "[7]", "result": 69, "unit": "%"}, {"measurement": "inhibition at 1 µM", "setting": "[8]", "result": 59, "unit": "%"}]}, {"smiles": "CC1=C(/C=C/C(C)=C/C=C/C(C)=C/C(=O)O)C(C)(C)CCC1", "note": "[TRETINOIN]", "values": [{"measurement": "inhibition at 1 µM", "setting": "[6]", "result": 39, "unit": "%"}, {"measurement": "growth relative to control at 1 µM", "setting": "[7]", "result": 94, "unit": "%"}, {"measurement": "inhibition at 1 µM", "setting": "[8]", "result": 70, "unit": "%"}]}, {"smiles": "CC1(C)CCC(C)(C)c2cc(-c3cccc(-c4ccc(C(=O)O)cc4)n3)ccc21", "values": [{"measurement": "AC50", "setting": "[1]", "result": "> 1000", "unit": "nM"}, {"measurement": "AC50", "setting": "[2]", "result": "> 1000", "unit": "nM"}, {"measurement": "Activation", "setting": "[3]", "result": 17, "unit": "%"}, {"measurement": "AC50", "setting": "[4]", "result": 140, "unit": "nM"}, {"measurement": "AC50", "setting": "[5]", "result": 370, "unit": "nM"}]}, {"smiles": "Cc1cc2c(cc1-c1ncc(-c3ccc(C(=O)O)cc3)s1)C(C)(C)CCC2(C)C", "values": [{"measurement": "AC50", "setting": "[1]", "result": "> 1000", "unit": "nM"}, {"measurement": "AC50", "setting": "[2]", "result": 220, "unit": "nM"}, {"measurement": "Activation", "setting": "[3]", "result": 8, "unit": "%"}, {"measurement": "AC50", "setting": "[4]", "result": 740, "unit": "nM"}, {"measurement": "AC50", "setting": "[5]", "result": "> 1000", "unit": "nM"}]}]}
